From patent publication US12370170B2, “Composition comprising naphthoquinone-based compound as active ingredient, for preventing or ameliorating fatigue, cachexia, pain, cognitive decline and hematopoietic stem cell reduction which are side effects related to anticancer drug treatment” (NADIANBIO LTD., priority 2016, dated 2025) come the findings set out here.

Bounds are passed on as bounds.

Common to all, as to format: in vivo, C57BL/6 mice
The nature of assay [1]: Muscle loss (body weight, gastrocnemius muscle weight) in 3×ACP animal model. The settings on record: 3×ACP i.p. once; dunnione 20 mg/kg oral daily from 3 days before; 2 and 4 days after ACP. As to the method:
(§1) In this invention, 11 weeks old C57BL/6 mice were used. All the mice used in the experiments of the invention were raised in an aseptic animal room at the temperature of 22˜26 L with the humidity of 55˜60%. The mice were allowed to take general solid feed (SAMTACO Co., Ltd., Korea) and water freely. The mice were adapted for 1 week before the experiment. All the experiments were performed after obtaining approval from the clinical trial management committee in accordance with the laboratory animal care and ethics regulations of Wonkwang University. The mouse animal model of the present invention was treated with different anticancer drugs. Particularly, one kind of anticancer drug was administered intraperitoneally one time or more, or several kinds of anticancer drugs were administered once or more times or at different concentrations, leading to the establishment of the animal model of the invention. […]
To investigate the regulatory effect of dunnione on muscle loss in the 3×ACP animal models prepared by the same manner as described in Example 6, the changes of body weight and gastrocnemius muscle weight were measured after the drug treatment.

Assay [2] concerns bone marrow cells and hematopoietic stem/progenitor cells. Kind of assay: Bone marrow hematopoietic stem cell reduction by flow cytometry, 3×ACP animal model. The conditions noted are these: 2 days after ACP. The protocol:
In this invention, 11 weeks old C57BL/6 mice were used. All the mice used in the experiments of the invention were raised in an aseptic animal room at the temperature of 22˜26 L with the humidity of 55˜60%. The mice were allowed to take general solid feed (SAMTACO Co., Ltd., Korea) and water freely. The mice were adapted for 1 week before the experiment. All the experiments were performed after obtaining approval from the clinical trial management committee in accordance with the laboratory animal care and ethics regulations of Wonkwang University. The mouse animal model of the present invention was treated with different anticancer drugs. Particularly, one kind of anticancer drug was administered intraperitoneally one time or more, or several kinds of anticancer drugs were administered once or more times or at different concentrations, leading to the establishment of the animal model of the invention. In the adriamycin-induced animal model, the mice were divided into 6 groups as follows: the control group administered with PBS (Control, 5 mice), the group administered intraperitoneally with adriamycin (4 mg/kg/day) 3 times (ADR, 5 mice), the group administered orally with dunnione or β-lapachone from 3 days before the adriamycin treatment daily (20 mg/kg, 5 mice), and the group administered with dunnione or β-lapachone (20 mg/kg, 5 mice). 4 days after the final adriamycin treatment, analysis of the mice was performed.
In the 3×ACP induced animal model for the analysis of bone marrow hematopoietic stem cell protective effect, the mice were divided into 4 groups as follows: the control group administered with PBS (Control, 4 mice), the group administered intraperitoneally with 3×ACP once (3×ACP, 4 mice), the group administered orally with dunnione from 3 days before the 3×ACP treatment daily (20 mg/kg, 4 mice), and the group administered with dunnione (20 mg/kg, 4 mice). 2 days after the ACP treatment, analysis of the mice was performed. […]
As a result, as shown in FIG. 9 presenting the results of flow cytometry for the quantitative analysis of bone marrow hematopoietic cells, the region where lineage negative cells were distributed was gated. […] Next, hematopoietic stem cells and multipotent progenitor cells were separated and analyzed, leading to the analysis of multipotent progenitor cell-4 (MPP4) and hematopoietic stem cell/progenitor cell (HSPC). With the hematopoietic stem cell/progenitor cell group, long-term hematopoietic stem cells (HSC^LT), short-term hematopoietic stem cells (HSC^ST), and multipotent progenitor cell-2 and -3 (MPP2 and MPP3) were analyzed. In FIG. 9, the results of flow cytometry analyzed for each group are presented. […]
For orientation: Flow cytometry measures light scatter and fluorescence of single cells or particles in a stream.

A short description of assay [3]: Muscle loss (body weight, gastrocnemius muscle weight) in cyclophosphamide induced animal model. The conditions noted are these: cyclophosphamide 150 mg/kg+200 mg/kg i.p.; dunnione 20 mg/kg oral daily from 3 days before; 48 hours after. As to the method:
as §1
In the cyclophosphamide (150 mg/kg+200 mg/kg) induced animal model prepared by the same manner as described in Example 9, the changes of body weight and gastrocnemius muscle weight were measured after the drug treatment in order to investigate the regulatory effect of dunnione on muscle loss.

Regarding `CC1OC2=C(C(=O)C(=O)c3ccccc32)C1(C)C` (centres unmarked) [dunnione, 2,3-dihydro-2,3,3-trimethyl naphtho [1,2-b]furan-4,5-dione], in assay [1], the “reduction of gastrocnemius muscle weight and gastrocnemius muscle weight change” value is “significantly restored”; the “weight loss (body weight)” value is reported as “significantly restored”. In addition, the “total bone marrow cell number, increase relative to the group treated with the anticancer drugs” value in assay [2] (3×ACP + dunnione 20 mg/kg oral daily from 3 days before) is listed as “at least three times”. Also, in assay [2] (3×ACP + dunnione 20 mg/kg oral), the “number of hematopoietic stem cell/progenitor cell, increase by dunnione” value is given as “as much as three times”; the “number of long-term hematopoietic stem cells (HSC^LT), increase relative to the group treated with the anticancer drugs” value is on record as “at least 2 times”; the “number of short-term hematopoietic stem cells (HSC^ST), increase relative to the group treated with the anticancer drugs” value is at least 8 times. In addition, in assay [3], the “reduction of gastrocnemius muscle weight and gastrocnemius muscle weight change” value is “significantly restored”; the “weight loss (body weight)” value was “significantly restored”.
